Measured values as given in article PMC6508792, “Arabidopsis MATE45 antagonizes local abscisic acid signaling to mediate development and abiotic stress responses” (Plant Direct, 2018).

Target: T1, MATE45^long (Arabidopsis thaliana, UniProt A0A1L2EGK5)
T1 construct: gene At1g71870; long splice form ORF cloned from wild-type seedling cDNA, in pDEST42, expressed in Escherichia coli acrB
T1 sequence (A0A1L2EGK5 1-510): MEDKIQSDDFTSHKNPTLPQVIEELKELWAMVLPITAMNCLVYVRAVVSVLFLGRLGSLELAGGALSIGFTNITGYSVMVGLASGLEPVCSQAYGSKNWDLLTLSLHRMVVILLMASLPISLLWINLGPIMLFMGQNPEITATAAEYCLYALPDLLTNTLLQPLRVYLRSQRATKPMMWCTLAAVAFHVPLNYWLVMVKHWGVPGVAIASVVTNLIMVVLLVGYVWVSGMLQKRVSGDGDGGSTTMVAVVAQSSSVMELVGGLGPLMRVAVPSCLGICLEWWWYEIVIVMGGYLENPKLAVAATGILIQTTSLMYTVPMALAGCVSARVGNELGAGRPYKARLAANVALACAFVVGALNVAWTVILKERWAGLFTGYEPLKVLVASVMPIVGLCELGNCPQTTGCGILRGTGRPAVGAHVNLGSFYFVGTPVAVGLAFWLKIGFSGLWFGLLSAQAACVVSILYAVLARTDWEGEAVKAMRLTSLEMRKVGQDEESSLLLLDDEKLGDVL
Assay: uptake into E. coli acrB cells, LC-MS MRM
Assay type: cell-based
Details: 0.5 uM (+)-ABA, 30 min; Venus fluorescent protein as control

CC1=CC(=O)CC(C)(C)C1(O)/C=C/C(C)=C\C(=O)O (stereo in doubt) [(+)-ABA, (+)‐ABA]
rate of (+)-ABA uptake: significantly higher rates of ABA uptake into E. coli cells expressing MATE45^long compared to the control
